According to PubChem BioAssay AID1963984 (Molecular Pharmacology Branch, DTP, NCI, 2024):
pIC50: −log10 of the molar value.

System: 233499-124-R-J3-PDC spheroids with HUVEC/MSC, viability
Test: Anticancer human tumor 233499-124-R-J3-PDC patient-derived colon adenocarcinoma cell line growth inhibition [PI3K]
Conditions: for pIC50: curve of first compound; for viability, T/C: stronger effect = lower value
How it was run: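 Stroma-containing spheroids: tumor line, pooled-donor HUVEC, hMSC. Treatments: targeted agents with PI3K inhibitors. Dosing: clinically relevant, half-log spacing, 10 microM ceiling without known Cmax. Read-out: cell viability.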

[1] = second compound 0.00316 µM, first compound 0.0316 µM
[2] = second compound 0.00316 µM, first compound 0.1 µM
[3] = second compound 0.01 µM, first compound 0.0316 µM
[4] = second compound 0.01 µM, first compound 0.1 µM
[5] = second compound 0.0316 µM, first compound 0.0316 µM
[6] = second compound 0.0316 µM, first compound 0.1 µM
[7] = second compound 0.1 µM, first compound 0.0316 µM
[8] = second compound 0.1 µM, first compound 0.1 µM
[9] = second compound 0.316 µM, first compound 0.0316 µM
[10] = second compound 0.316 µM, first compound 0.1 µM
[11] = second compound 1 µM, first compound 0.0316 µM
[12] = second compound 1 µM, first compound 0.1 µM
[13] = second compound 0.00316 µM, first compound 0.316 µM
[14] = second compound 0.00316 µM, first compound 1 µM
[15] = second compound 0.00316 µM, first compound 3.16 µM
[16] = second compound 0.00316 µM, first compound 10 µM
[17] = second compound 0.01 µM, first compound 0.316 µM
[18] = second compound 0.01 µM, first compound 1 µM
[19] = second compound 0.01 µM, first compound 3.16 µM
[20] = second compound 0.01 µM, first compound 10 µM
[21] = second compound 0.0316 µM, first compound 0.316 µM
[22] = second compound 0.0316 µM, first compound 1 µM
[23] = second compound 0.0316 µM, first compound 3.16 µM
[24] = second compound 0.0316 µM, first compound 10 µM
[25] = second compound 0.1 µM, first compound 0.316 µM
[26] = second compound 0.1 µM, first compound 1 µM
[27] = second compound 0.1 µM, first compound 3.16 µM
[28] = second compound 0.1 µM, first compound 10 µM
[29] = second compound 0.316 µM, first compound 0.316 µM
[30] = second compound 0.316 µM, first compound 1 µM
[31] = second compound 0.316 µM, first compound 3.16 µM
[32] = second compound 0.316 µM, first compound 10 µM
[33] = second compound 1 µM, first compound 0.316 µM
[34] = second compound 1 µM, first compound 1 µM
[35] = second compound 1 µM, first compound 3.16 µM
[36] = second compound 1 µM, first compound 10 µM
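Note: spheroids exposed to agents for seven days before readout.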
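Throughout, for viability, T/C: percent viability relative to DMSO vehicle control taken as 100%.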

## CC(C)n1nc(-c2ccc3oc(N)nc3c2)c2c(N)ncnc21 + COc1c(OCCCN2CCOCC2)ccc2c3n(c(=NC(=O)c4cnc(N)nc4)nc12)CCN3
Second compound 0.00316 µM
  pIC50: < 7.00
Second compound 0.01 µM
  pIC50: < 7.00
Second compound 0.0316 µM
  pIC50: 7.26
Second compound 0.1 µM
  pIC50: 8.29
Second compound 0.316 µM
  pIC50: > 9.50
Second compound 1 µM
  pIC50: > 9.50
Second compound 0.00316 µM, first compound 0.000316 µM
  viability, T/C: 98.3%
Second compound 0.00316 µM, first compound 0.001 µM
  viability, T/C: 90.8%
Second compound 0.00316 µM, first compound 0.00316 µM
  viability, T/C: 74.6%
Second compound 0.00316 µM, first compound 0.01 µM
  viability, T/C: 80.3%
[1]
  viability, T/C: 83%
[2]
  viability, T/C: 65.1%
Second compound 0.01 µM, first compound 0.000316 µM
  viability, T/C: 84.1%
Second compound 0.01 µM, first compound 0.001 µM
  viability, T/C: 76.4%
Second compound 0.01 µM, first compound 0.00316 µM
  viability, T/C: 87.8%
Second compound 0.01 µM, first compound 0.01 µM
  viability, T/C: 80.5%
[3]
  viability, T/C: 62.3%
[4]
  viability, T/C: 60.2%
Second compound 0.0316 µM, first compound 0.000316 µM
  viability, T/C: 79.9%
Second compound 0.0316 µM, first compound 0.001 µM
  viability, T/C: 86.5%
Second compound 0.0316 µM, first compound 0.00316 µM
  viability, T/C: 73.7%
Second compound 0.0316 µM, first compound 0.01 µM
  viability, T/C: 80.6%
[5]
  viability, T/C: 71%
[6]
  viability, T/C: 27%
Second compound 0.1 µM, first compound 0.000316 µM
  viability, T/C: 77.5%
Second compound 0.1 µM, first compound 0.001 µM
  viability, T/C: 51.7%
Second compound 0.1 µM, first compound 0.00316 µM
  viability, T/C: 56%
Second compound 0.1 µM, first compound 0.01 µM
  viability, T/C: 46.8%
[7]
  viability, T/C: 38.7%
[8]
  viability, T/C: 16.9%
Second compound 0.316 µM, first compound 0.000316 µM
  viability, T/C: 28.4%
Second compound 0.316 µM, first compound 0.001 µM
  viability, T/C: 31.3%
Second compound 0.316 µM, first compound 0.00316 µM
  viability, T/C: 33.6%
Second compound 0.316 µM, first compound 0.01 µM
  viability, T/C: 18.6%
[9]
  viability, T/C: 17.2%
[10]
  viability, T/C: 9.14%
Second compound 1 µM, first compound 0.000316 µM
  viability, T/C: 7.93%
Second compound 1 µM, first compound 0.001 µM
  viability, T/C: 6.08%
Second compound 1 µM, first compound 0.00316 µM
  viability, T/C: 9.7%
Second compound 1 µM, first compound 0.01 µM
  viability, T/C: 5.56%
[11]
  viability, T/C: 8.2%
[12]
  viability, T/C: 2.93%

## CC1(C)CCC(CN2CCN(c3ccc(C(=O)NS(=O)(=O)c4ccc(NCC5CCOCC5)c([N+](=O)[O-])c4)c(Oc4cnc5[nH]ccc5c4)c3)CC2)=C(c2ccc(Cl)cc2)C1 + COc1c(OCCCN2CCOCC2)ccc2c3n(c(=NC(=O)c4cnc(N)nc4)nc12)CCN3
Second compound 0.00316 µM
  pIC50: < 5.00
Second compound 0.01 µM
  pIC50: < 5.00
Second compound 0.0316 µM
  pIC50: < 5.00
Second compound 0.1 µM
  pIC50: 5.09
Second compound 0.316 µM
  pIC50: > 7.50
Second compound 1 µM
  pIC50: > 7.50
[1]
  viability, T/C: 93.8%
[2]
  viability, T/C: 108%
[13]
  viability, T/C: 113%
[14]
  viability, T/C: 101%
[15]
  viability, T/C: 99%
[16]
  viability, T/C: 100%
[3]
  viability, T/C: 96.7%
[4]
  viability, T/C: 104%
[17]
  viability, T/C: 92%
[18]
  viability, T/C: 108%
[19]
  viability, T/C: 101%
[20]
  viability, T/C: 93.1%
[5]
  viability, T/C: 96.5%
[6]
  viability, T/C: 95%
[21]
  viability, T/C: 86.4%
[22]
  viability, T/C: 78.7%
[23]
  viability, T/C: 80.1%
[24]
  viability, T/C: 61.2%
[7]
  viability, T/C: 60.6%
[8]
  viability, T/C: 73.3%
[25]
  viability, T/C: 55.5%
[26]
  viability, T/C: 62.2%
[27]
  viability, T/C: 53.3%
[28]
  viability, T/C: 49.5%
[9]
  viability, T/C: 19.8%
[10]
  viability, T/C: 28.9%
[29]
  viability, T/C: 15.3%
[30]
  viability, T/C: 40.2%
[31]
  viability, T/C: 17.5%
[32]
  viability, T/C: 26.6%
[11]
  viability, T/C: 7.27%
[12]
  viability, T/C: 2.35%
[33]
  viability, T/C: 15.9%
[34]
  viability, T/C: 13.9%
[35]
  viability, T/C: 6.93%
[36]
  viability, T/C: 13.2%

## C[C@@H](NC(=O)c1ncnc(N)c1Cl)c1ncc(C(=O)Nc2cc(C(F)(F)F)c(Cl)cn2)s1 + COc1c(OCCCN2CCOCC2)ccc2c3n(c(=NC(=O)c4cnc(N)nc4)nc12)CCN3
Second compound 0.00316 µM
  pIC50: < 5.00
Second compound 0.01 µM
  pIC50: < 5.00
Second compound 0.0316 µM
  pIC50: < 5.00
Second compound 0.1 µM
  pIC50: < 5.00
Second compound 0.316 µM
  pIC50: > 7.50
Second compound 1 µM
  pIC50: > 7.50
[1]
  viability, T/C: 97.6%
[2]
  viability, T/C: 127%
[13]
  viability, T/C: 126%
[14]
  viability, T/C: 103%
[15]
  viability, T/C: 120%
[16]
  viability, T/C: 104%
[3]
  viability, T/C: 94.1%
[4]
  viability, T/C: 103%
[17]
  viability, T/C: 105%
[18]
  viability, T/C: 117%
[19]
  viability, T/C: 121%
[20]
  viability, T/C: 123%
[5]
  viability, T/C: 113%
[6]
  viability, T/C: 107%
[21]
  viability, T/C: 109%
[22]
  viability, T/C: 96.1%
[23]
  viability, T/C: 107%
[24]
  viability, T/C: 106%
[7]
  viability, T/C: 85.6%
[8]
  viability, T/C: 79.4%
[25]
  viability, T/C: 85.5%
[26]
  viability, T/C: 69.8%
[27]
  viability, T/C: 97.9%
[28]
  viability, T/C: 99.3%
[9]
  viability, T/C: 44.8%
[10]
  viability, T/C: 31.8%
[29]
  viability, T/C: 21%
[30]
  viability, T/C: 37.7%
[31]
  viability, T/C: 45.6%
[32]
  viability, T/C: 31.2%
[11]
  viability, T/C: 6.68%
[12]
  viability, T/C: 10.7%
[33]
  viability, T/C: 13.8%
[34]
  viability, T/C: 7.94%
[35]
  viability, T/C: 20%
[36]
  viability, T/C: 1.67%
